Assay results reported in patent US12162863B2, “Modulators of stimulator of interferon genes (STING)” (RYVU THERAPEUTICS S.A., priority 2018, dated 2024).

Legend:
human STING = human STING (Homo sapiens, UniProt Q86WV6); test: Fluorescence Thermal Shift assay; format: binding; details: 50 μM compound; STING 0.1 mg/ml; 20 minutes preincubation; read-out: [hSTING] FTS, ΔTm [° C.] for 50 μM
Procedure: Fluorescence Thermal Shift Assay Compounds of the present invention were tested for binding to human STING in Fluorescence Thermal Shift assay. STING was preincubated with the compounds for 20 minutes in 50 mM Hepes, 150 mM NaCl, pH 7.5 in 16 μl volume, following by adding 4 μl of SyproOrange dye dilution (ThermoFisher, cat no. S-6651). Final STING concentration was 0.1 mg/ml. Thermal unfolding was performed in Real-Time PCR QuantStudio 6 Flex System (Applied Biosystems), from 25 to 99° C., with continuous ramp mode and ramp rate 0.033° C./s. The data were analyzed using Protein Thermal Shift Software (ThermoFisher). […] For example, ΔTm [° C.] of FTS assay for following examples are: […]

[1] = test system: interferon regulatory factor (IRF) pathway in THP-1 dual cells; test: THP-1 Dual Reporter Assay, IRF pathway (luciferase reporter); format: cell-based; details: Homo sapiens, THP1-Dual, 18 h of stimulation, luminescence
Procedure: (§1) THP-1 Dual Reporter Assay
(§2) Compounds of the present invention were tested for their activity using THP-1 dual cells (Invivogen, cat no. thpd-nfis) allowing for simultaneous study of NF-κB pathway and the interferon regulatory factor (IRF) pathway. THP-1 dual cells contain luciferase reporter gene under the control of an ISG54 (interferon-stimulated gene) minimal promoter in conjunction with five interferon-stimulated response elements and a secreted embryonic alkaline phosphatase reporter gene under the control an IFN (interferon)-β minimal promoter fused to five copies of the NF-κB consensus transcriptional response element with three copies of the c-Rel binding site. Following 18 h of stimulation with STING agonist, medium was collected and transferred onto fresh cell culture plate. To verify activity of the IRF pathway, luminescence activity was measured with standard laboratory plate reader immediately after addition 10 μl of the medium to 50 μl of luminescence reagent (Invivogen, cat. No. rep-qlc2). To verify activity of NF-κB pathway, 20 μl of the medium was mixed with 80 μl of a detection medium (Invivogen, cat. No. rep-qb2) and incubated for 2 hours at 37° C. in a humidified atmosphere containing 5% CO2. Next, absorbance at 630 nm was recorded using standard laboratory plate reader.

[2] = test system: NF-κB pathway in THP-1 dual cells; test: THP-1 Dual Reporter Assay, NF-κB pathway (SEAP reporter); format: cell-based; details: Homo sapiens, THP1-Dual, 18 h of stimulation, absorbance at 630 nm, read-out: THP1 Dual EC50 (μM) NFkB
Procedure: as §1, §2

human STING, sequence (Q86WV6 whole entry H232R): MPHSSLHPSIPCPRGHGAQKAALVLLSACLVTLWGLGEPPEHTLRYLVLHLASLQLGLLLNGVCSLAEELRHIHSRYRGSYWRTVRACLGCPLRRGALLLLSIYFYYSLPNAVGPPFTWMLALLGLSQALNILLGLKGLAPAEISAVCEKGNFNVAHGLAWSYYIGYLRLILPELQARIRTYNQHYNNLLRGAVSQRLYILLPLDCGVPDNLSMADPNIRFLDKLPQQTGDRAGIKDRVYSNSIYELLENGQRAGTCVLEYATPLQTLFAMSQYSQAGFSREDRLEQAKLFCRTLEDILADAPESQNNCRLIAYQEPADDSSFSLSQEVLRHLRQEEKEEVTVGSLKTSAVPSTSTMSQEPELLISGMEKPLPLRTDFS

SMILES	ΔTm at 50 µM (human STING) [°C]	EC50 [1] [µM]	EC50 [2] [µM]
O=c1c(CN(CCCn2ccnc2)Cc2ccncc2)coc2c3c(ccc12)CCCC3 [Example 20, 3-({[3-(1H-imidazol-1-yl)propyl](pyridin-4-ylmethyl)amino}methyl)-4H,7H,8H,9H,10-cyclohexa[h]chromen-4-one]	< 2.5	≤ 10	≤ 10
O=c1c(CN(CCCc2ccncc2)Cc2ccncc2)coc2ccccc12 [Example 21, 3-({[(pyridin-4-yl)methyl][3-(pyridin-4-yl)propyl]amino}methyl)-4H-chromen-4-one]	> 2.5	≤ 10	10 to 20
O=c1c(CN(CCCn2ccnn2)Cc2ccncc2)coc2cc(Br)ccc12 [Example 22, 7-bromo-3-{[(pyridin-4-ylmethyl)[3-(1H1,2,3-triazol-1-yl)propyl]amino]methyl}-4H-chromen-4-one]	< 2.5	10 to 20	≥ 20
O=c1c(CN(CCCn2ccnc2)Cc2ccncc2)coc2cc(-c3ccc(F)cc3)ccc12 [Example 23, 7-(4-fluorophenyl)-3-({[3-(1H-imidazol-1-yl)propyl](pyridin-4-ylmethyl)amino}methyl)-4H-chromen-4-one]	> 2.5	≥ 20	≥ 20
Cc1cc(CN(CCCn2ccnc2)Cc2coc3ccccc3c2=O)ccn1 [Example 25, 3-({[3-(1H-imidazol-1-yl)propyl][(2-methylpyridin-4-yl)methyl]amino}methyl)-4H-chromen-4-one]	< 2.5	10 to 20	≥ 20
Cc1ccc2c(=O)c(CN(CCCn3ccnc3)Cc3ccnc(F)c3)coc2c1C [Example 26, 3-({[(2-fluoropyridin-4-yl)methyl][3-(1H-imidazol-1-yl)propyl]amino}methyl)-7,8-dimethyl-4H-chromen-4-one]	< 2.5	≥ 20	≥ 20
COc1cc(CN(CCCn2ccnc2)Cc2coc3cc(O)ccc3c2=O)ccn1 [Example 27, 7-hydroxy-3-({[3-(1H-imidazol-1-yl)propyl][(2-methoxypyridin-4-yl)methyl]amino}methyl)-4H-chromen-4-one]	> 2.5	10 to 20	≥ 20
O=c1c(CN(CCCc2cccnc2)Cc2ccncc2)coc2c1ccc1ccccc12 [Example 28, 3-({[3-(pyridin-3-yl)propyl](pyridin-4-ylmethyl)amino}methyl)-4H-benzo[h]chromen-4-one]	> 2.5	≤ 10	≤ 10
O=c1c(CN(CCCn2ccnc2)Cc2ccncc2)coc2ccc(F)cc12 [Example 29, 6-fluoro-3-({[3-(1H-imidazol-1-yl)propyl][(pyridin-4-yl)methyl]amino}methyl)-4H-chromen-4-one]	> 2.5	≤ 10	10 to 20
COc1cc(CN(CCCn2ccnc2)Cc2coc3c(ccc4ccccc43)c2=O)ccn1 [Example 30, 3-({[3-(1H-imidazol-1-yl)propyl][(2-methoxypyridin-4-yl)methyl]amino}methyl)-4H-benzo[h]chromen-4-one]	> 2.5	≤ 10	≤ 10
Cn1cc(CN(CCCn2ccnc2)Cc2ccncc2)c(=O)c2ccccc21 [Example 31, 3-({[3-(1H-imidazol-1-yl)propyl][(pyridin-4-yl)methyl]amino}methyl)-1-methyl-1,4-dihydroquinolin-4-one]	> 2.5	≥ 20	≥ 20
COc1ccc(-c2ccc3c(=O)c(CN(CCCn4ccnc4)Cc4ccncc4)coc3c2)cc1 [Example 32, 3-({[3-(1H-imidazol-1-yl)propyl](pyridin-4-ylmethyl)amino}methyl)-7-(4-methoxyphenyl)-4H-chromen-4-one]	> 2.5	10 to 20	≥ 20
O=c1c(CN(CCCn2ccnc2)Cc2ccncc2)coc2ccccc12 [Example 33, 3-({[3-(1H-imidazol-1-yl)propyl](pyridin-4-ylmethyl)amino}methyl)-4H-chromen-4-one]	< 2.5	10 to 20	≥ 20
COc1cc(CN(CCCn2ccnc2)Cc2coc3cc(N4CCN(C)CC4)ccc3c2=O)ccn1 [Example 34, 3-({[3-(1H-imidazol-1-yl)propyl][(2-methoxypyridin-4-yl)methyl]amino}methyl)-7-(4-methylpiperazin-1-yl)-4H-chromen-4-one]	< 2.5	≥ 20	10 to 20
Cc1oc2ccccc2c(=O)c1CN(CCCn1ccnc1)Cc1ccncc1 [Example 36, 3-({[3-(1H-imidazol-1-yl)propyl][(pyridin-4-yl)methyl]amino}methyl)-2-methyl-4H-chromen-4-one]	> 2.5	≤ 10	10 to 20
O=c1c(CN(CCCn2ccnc2)Cc2ccncc2)coc2cc(Br)c(F)cc12 [Example 37, 7-bromo-6-fluoro-3-({[3-(1H-imidazol-1-yl)propyl][(pyridin-4-yl)methyl]amino}methyl)-4H-chromen-4-one]	> 2.5	≤ 10	≤ 10
COc1ccc(-c2ccc3c(=O)c(CN(CCCn4ccnc4)Cc4ccncc4)coc3c2)cc1OC [Example 38, 7-(3,4-dimethoxyphenyl)-3-({[3-(1H-imidazol-1-yl)propyl][(pyridin-4-yl)methyl]amino}methyl)-4H-chromen-4-one]	< 2.5	≥ 20	≥ 20
COc1ccccc1-c1ccc2c(=O)c(CN(CCCn3ccnc3)Cc3ccncc3)coc2c1 [Example 39, 3-({[3-(1H-imidazol-1-yl)propyl][(pyridin-4-yl)methyl]amino}methyl)-7-(2-methoxyphenyl)-4H-chromen-4-one]	> 2.5	≤ 10	10 to 20
COc1cccc(-c2ccc3c(=O)c(CN(CCCn4ccnc4)Cc4ccncc4)coc3c2)c1 [Example 40, 3-({[3-(1H-imidazol-1-yl)propyl][(pyridin-4-yl)methyl]amino}methyl)-7-(3-methoxyphenyl)-4H-chromen-4-one]	> 2.5	≤ 10	≤ 10
Cc1oc2ccccc2c(=O)c1CN(CCCc1cccnc1)Cc1ccncc1 [Example 41, 2-methyl-3-({[3-(pyridin-3-yl)propyl][(pyridin-4-yl)methyl]amino}methyl)-4H-chromen-4-one]	> 2.5	10 to 20	10 to 20
COc1ccc(-c2cc3occ(CN(CCCn4ccnc4)Cc4ccncc4)c(=O)c3cc2F)cc1 [Example 42, 6-fluoro-3-({[3-(1H-imidazol-1-yl)propyl][(pyridin-4-yl)methyl]amino}methyl)-7-(4-methoxyphenyl)-4H-chromen-4-one]	> 2.5	≤ 10	≤ 10
CCn1cc(CN(CCCn2ccnc2)Cc2ccncc2)c(=O)c2ccccc21 [Example 43, 1-ethyl-3-({[3-(1H-imidazol-1-yl)propyl](pyridin-4-ylmethyl)amino}methyl)-1,4-dihydroquinolin-4-one]	< 2.5	≥ 20	≥ 20
COc1cc(CN(CCCn2ccnc2)Cc2cn(C)c3ccccc3c2=O)ccn1 [Example 44, 3-({[3-(1H-imidazol-1-yl)propyl][(2-methoxypyridin-4-yl)methyl]amino}methyl)-1-methyl-1,4-dihydroquinolin-4-one]	< 2.5	10 to 20	≥ 20
O=c1c(CN(CCCn2ccnc2)Cc2ccncc2)coc2c(F)cc(F)cc12 [Example 45, 6,8-difluoro-3-({[3-(1H-imidazol-1-yl)propyl][(pyridin-4-yl)methyl]amino}methyl)-4H chromen-4-one]	< 2.5	10 to 20	≥ 20
COc1cc(CN(CCCn2ccnc2)Cc2c(C)oc3ccccc3c2=O)ccn1 [Example 46, 3-({[3-(1H-imidazol-1-yl)propyl][(2-methoxypyridin-4-yl)methyl]amino}methyl)-2-methyl-4H-chromen-4-one]	< 2.5	≤ 10	≥ 20
O=c1c(CN(CCCn2ccnc2)Cc2ccncc2)coc2c1cc(F)c1ccccc12 [Example 47, 6-fluoro-3-({[3-(1H-imidazol-1-yl)propyl][(pyridin-4-yl)methyl]amino}methyl)-4H benzo[h]chromen-4-one]	> 2.5	≤ 10	≤ 10
